Test results as given in PubChem BioAssay AID2060619 (Molecular Pharmacology Branch, DTP, NCI, 2025).
Where “and” joins values, the source holds several entries; their conditions need not be identical. Equal entries are not always repeated.

Test system: 323965-272-R-J2-PDC complex spheroid viability
Experiment: Anticancer human tumor 323965-272-R-J2-PDC patient-derived pancreatic carcinoma cell line growth inhibition [CLK]
Settings: for viability, T/C: stronger effect = lower value; for IC50: curve of compound; active means viability on the fitted dose curve at most 10% of control; inactive means the rest
Excerpt: A high-throughput screen of multi-cell type tumor spheroids was designed to identify active combinations of […] and targeted small molecules. Complex spheroids include a stromal component modeled by human endothelial cells (HUVEC) and fibroblasts modeled by human mesenchymal stem cells (MSCs). The concentration ranges selected for each drug and investigational agent were based upon clinically achievable concentrations if the clinical Cmax of the agent was known.
Compounds. The drugs and investigational agents: cirtuvivint (SM08502; NSC835563), CC-671 (NSC850746), vemurafenib (NSC761431), tapotoclax (NSC804041), sotorasib (NSC818433), adagrasib (NSC831453), MRTX-1133 (NSC836407), BAY2416964 (NSC825713), copanlisib (NSC816437), inavolisib (NSC800729), abemaciclib (NSC768073), osimertinib (NSC779217), entinostat (NSC756642), eltanexor (KPT-8602, NSC794443), venetoclax (NSC766270), ceralasertib (NSC777638), bortezomib (NSC756655), olaparib (NSC753686), talazoparib (NSC767125), alisertib (NSC759677), peposertib (NSC802822), gemcitabine (NSC613327), 5-fluorouracil (NSC19893), SN-38 (NSC673596), oxaliplatin (NSC266046), paclitaxel (NSC125973), and doxorubicin (NSC123127), were obtained from the National Cancer Institute (NCI) Developmental Therapeutics Program Chemical Repository. The FDA-approved anticancer drug set is available from the Developmental Therapeutics Program at https://dtp.cancer.gov/organization/dscb/obtaining/available plates.htm. […] The stock solutions were prepared in dimethyl sulfoxide (DMSO, Sigma-Aldrich, St. Louis, MO, cat. D2650), except for the platinum complexes which were prepared in saline (Quality Biological, Gaithersburg, MD, cat. 114-055-101), at 800-fold the tested concentration and stored at -70 degrees C prior to their use. All drugs and investigational agents were tested over a range starting from a high concentration at or near the clinical Cmax and decreasing in half-log increments. If the clinical Cmax for an agent had not been determined, the highest concentration tested was 10 microM.
Cell Culture. All cells were maintained in an incubator at 37 degrees C and 5% CO2 with 95% humidity. The PDC lines were cultured according to standard operating procedures established by the NCI PDMR. Briefly, all PDCs were thawed and cultured in Matrigel-coated flasks prepared with a working solution of 1X Ham's F-12 nutrient mix, without supplementation (Invitrogen, Waltham, MA, cat. 11765054), 100 U/mL penicillin-streptomycin (Invitrogen, cat. 15140122), and 2.5% Matrigel (Corning Inc., Corning, NY, cat. 354248) for the first three passages. The 947758-054-R-J2-PDC line was cultured in 6B/Colon 1A media, which includes advanced DMEM/F-12 (Thermo Fisher Scientific, cat. 12634028), 10 mM HEPES (Thermo Fisher Scientific, cat. 15630080), 1X GlutaMAX supplement (Thermo Fisher Scientific, cat. 35050061), 0.1 mg/mL primocin (InvivoGen, cat. ant-pm-2), 10% defined fetal bovine serum, heat inactivated (HyClone Laboratories Inc., cat. SH30070.03HI), 1.25 mM N-Acetyl-L-cysteine (Sigma-Aldrich, cat. A9165), 10 mM nicotinamide (Sigma-Aldrich, cat. N0636), 1X B-27 supplement (Thermo Fisher Scientific, cat. 17504044), 1X N-2 supplement (Thermo Fisher Scientific, cat. 17502048), and 10 microM Y-27632 dihydrochloride (Tocris Bioscience, cat. 1254). The 876862-298-R-J1-PDC was cultured in 6E media, which includes all 6B/Colon 1A media components plus 50% L-WRN conditioned media (ATCC, cat. CRL-3276), 50 ng/mL recombinant human EGF recombinant protein (hEGF; Thermo Fisher Scientific, cat. PHG0311), 10 ng/mL recombinant human fibroblast growth factor 10 (hGFG-10; PeproTech, cat. 100-26), 1 ng/mL recombinant human fibroblast growth factor 2 (hFGF-2; PeproTech, cat. 100-18B), and 1 µM prostaglandin E2 (PGE2; Tocris, cat. 2296). The 227483-062-R1-J1-PDC line was cultured in Panc media, containing all 6E components except hFGF-2, with the addition of 500 nM SB-431542 (Selleckchem, cat. S1067) and 10 nM gastrin (Tocris, cat. 3006). […]
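Further: spheroids exposed to agents for seven days before readout.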
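Wherever viability, T/C is given: percent of DMSO vehicle control wells so 100% = untreated growth.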

C#Cc1c(F)ccc2cc(O)cc(-c3ncc4c(N5CC6CCC(C5)N6)nc(OCC56CCCN5CC(F)C6)nc4c3F)c12 (stereo unspecified)
9.34 µM and > 10 µM: IC50
inactive: viability, T/C (compound 0.0316 µM) 101% and 111% | viability, T/C (compound 0.1 µM) 91.2% and 95.5% | viability, T/C (compound 0.316 µM) 106% and 98.5% | viability, T/C (compound 1 µM) 81.5% and 86.9% | viability, T/C (compound 3.16 µM) 63.2% and 75.6% | viability, T/C (compound 10 µM) 48.4% and 55.3%

C=C(F)C(=O)N1CCN(c2nc(OCC3CCCN3C)nc3c2CCN(c2cccc4cccc(Cl)c24)C3)CC1CC#N (stereo unspecified)
inactive: viability, T/C (compound 0.0316 µM) 64.5% and 64.8% | viability, T/C (compound 0.1 µM) 50.8% and 64.2% | viability, T/C (compound 0.316 µM) 48.9% and 63% | viability, T/C (compound 1 µM) 69.4% and 61.5% | viability, T/C (compound 3.16 µM) 66.8% and 77.9%
3.99 µM and > 10 µM: IC50

C=CC(=O)N1CCN(c2nc(=O)n(-c3c(C)ccnc3C(C)C)c3nc(-c4c(O)cccc4F)c(F)cc23)C(C)C1 (stereo unspecified)
> 10 µM: IC50
inactive: viability, T/C (compound 0.0316 µM) 75.1% and 73.7% | viability, T/C (compound 0.1 µM) 60.8% and 66.9% | viability, T/C (compound 0.316 µM) 55.2% and 68.3% | viability, T/C (compound 1 µM) 67.1% and 84.3% | viability, T/C (compound 3.16 µM) 76% and 71.3% | viability, T/C (compound 10 µM) 62.9% and 66.1%

C=CC(=O)Nc1cc(Nc2nccc(-c3cn(C)c4ccccc34)n2)c(OC)cc1N(C)CCN(C)C
> 0.3 µM: IC50
inactive: viability, T/C (compound 0.000949 µM) 103% and 92.1% | viability, T/C (compound 0.003 µM) 80.7% and 91.7% | viability, T/C (compound 0.00949 µM) 97.6% and 86% | viability, T/C (compound 0.03 µM) 90.5% and 83.2% | viability, T/C (compound 0.0949 µM) 81.3% and 78.3% | viability, T/C (compound 0.3 µM) 87.5% and 75.6%

CC(=O)O[C@H]1C(=O)[C@@]2(C)[C@H]([C@H](OC(=O)c3ccccc3)[C@]3(O)C[C@H](OC(=O)[C@H](O)[C@@H](NC(=O)c4ccccc4)c4ccccc4)C(C)=C1C3(C)C)[C@]1(OC(C)=O)CO[C@@H]1C[C@@H]2O
inactive: viability, T/C (compound 0.0316 µM) 35.3% and 32% | viability, T/C (compound 0.1 µM) 36.8% and 34.2% | viability, T/C (compound 0.316 µM) 33.2% and 32.9% | viability, T/C (compound 1 µM) 34.6% and 33.4% | viability, T/C (compound 3.16 µM) 39.6% and 35.1% | viability, T/C (compound 10 µM) 35.9% and 36.3%
< 0.0316 µM: IC50

CC(C)CC(NC(=O)C(Cc1ccccc1)NC(=O)c1cnccn1)B(O)O (stereo unspecified)
active: viability, T/C (compound 0.00949 µM) 5.4% and 2.55% | viability, T/C (compound 0.03 µM) 0.66% and 1.05% | viability, T/C (compound 0.0949 µM) 0.26% and 0.62% | viability, T/C (compound 0.3 µM) 2% and 3.78%
inactive: viability, T/C (compound 0.000949 µM) 107% and 115% | viability, T/C (compound 0.003 µM) 75.1% and 49.5%
0.00454 µM and 0.00298 µM: IC50

CC(CO)NC(=O)c1cc(-c2ccc(Cl)cc2)nn(-c2cnn(C)c2)c1=O (stereo unspecified)
> 10 µM: IC50
inactive: viability, T/C (compound 0.0316 µM) 93.7% and 115% | viability, T/C (compound 0.1 µM) 92.6% and 98.9% | viability, T/C (compound 0.316 µM) 94.8% and 101% | viability, T/C (compound 1 µM) 91.8% and 110% | viability, T/C (compound 3.16 µM) 106% and 116% | viability, T/C (compound 10 µM) 91.5% and 105%

CC(Nc1ccc2c(c1)OCCn1cc(N3C(=O)OCC3C(F)F)nc1-2)C(N)=O (stereo unspecified)
inactive: viability, T/C (compound 0.0316 µM) 94.2% and 96.6% | viability, T/C (compound 0.1 µM) 89.2% and 83.2% | viability, T/C (compound 0.316 µM) 76.2% and 66.7% | viability, T/C (compound 1 µM) 67.8% and 65.5% | viability, T/C (compound 3.16 µM) 63.1% and 68.3% | viability, T/C (compound 10 µM) 50.9% and 47.6%
> 10 µM: IC50

CC1(C)CCC(CN2CCN(c3ccc(C(=O)NS(=O)(=O)c4ccc(NCC5CCOCC5)c([N+](=O)[O-])c4)c(Oc4cnc5[nH]ccc5c4)c3)CC2)=C(c2ccc(Cl)cc2)C1
inactive: viability, T/C (compound 0.0316 µM) 97.7% and 104% | viability, T/C (compound 0.1 µM) 103% and 96.6% | viability, T/C (compound 0.316 µM) 103% and 100% | viability, T/C (compound 1 µM) 95.6% and 102% | viability, T/C (compound 3.16 µM) 93.1% and 89.5%
5.61 µM and 5.54 µM: IC50
active: viability, T/C (compound 10 µM) 6.41% and 8.48%

CC1COCCN1c1cc(C2(S(C)(=N)=O)CC2)nc(-c2ccnc3[nH]ccc23)n1 (stereo unspecified)
2.07 µM and 1.96 µM: IC50
inactive: viability, T/C (compound 0.0316 µM) 103% and 106% | viability, T/C (compound 0.1 µM) 99.9% and 91.9% | viability, T/C (compound 0.316 µM) 90.5% and 90.1% | viability, T/C (compound 1 µM) 70.1% and 62.4% | viability, T/C (compound 3.16 µM) 37.1% and 40.2% | viability, T/C (compound 10 µM) 31.6% and 31%

CCCS(=O)(=O)Nc1ccc(F)c(C(=O)c2c[nH]c3ncc(-c4ccc(Cl)cc4)cc23)c1F
> 10 µM: IC50
inactive: viability, T/C (compound 0.0316 µM) 105% and 112% | viability, T/C (compound 0.1 µM) 105% and 113% | viability, T/C (compound 0.316 µM) 112% and 123% | viability, T/C (compound 1 µM) 110% and 105% | viability, T/C (compound 3.16 µM) 116% and 99% | viability, T/C (compound 10 µM) 84.8% and 79.7%
